Reference: patent US20140294873A1, “SMALL MOLECULE SCREEN FOR INHIBITORS OF NFAT: AP-1: DNA INTERACTIONS” (CHILDREN'S MEDICAL CENTER CORPORATION, priority 2011, published 2014)
“Also recorded” adds a separate entry of the source.

What was measured:
[1] = system: proinflammatory mediator mRNA in Th1 cells; assay: Real time RT-PCR of T cells used for EAE induction; type: cell-based, mouse; conditions: for IL-2 mRNA transcript / IL-24 transcript levels / IP-10 transcript levels: compared to DMSO controls
Description: (§1) Real time RT-PCR: Total RNA was isolated from cell pellets using the RNeasy kit (Qiagen) followed by first-strand synthesis using SuperScript III (Invitrogen). Synthesized cDNA was amplified using the FastStart Universal SYBRGreen Master Mix (Roche). PCR data was collected using the StepOne Plus Real-Time PCR System (Applied Biosystems) and gene expression normalized to an endogenous GAPDH control using the ΔΔCT method; primer sequences have been described elsewhere.

NFAT:AP-1:DNA complex = target: T1, NFAT:AP-1:DNA complex (Homo sapiens, UniProt P01100+P05412+Q13469, C154S/C269S); assay: EMSA, NFAT:AP-1:DNA complex formation; type: binding; conditions: for assembly of the ternary complex: 6.25 mM compound; for inhibition of formation of the NFAT:AP-1:DNA complex: 32P end-labeled ARRE2, compound added before probe; for inhibition of NFAT:AP-1:DNA complex formation: compound in the 0-300 μM range
T1 construct: The NFAT DBD containing a His tag was cloned into the pQE vector; Fos and Jun bZIP domains (each encompassing 63 amino acids) were cloned into pETa vectors; His tag ([…] leader) (N); made in house; host or cells: E. coli Codon Plus BL21 (DE3) RIL for Fos and Jun; bacterial expression from a pQE vector for NFAT DBD
Method: (§2) EMSAs: Probe labeling: Annealed double-stranded ARRE2 was end-labeled using T4 polynucleotide kinase by incubating 50-100 ng DNA with 20 μCi 32P-γATP (Perkin Elmer) at 37° C. for 1 h followed by heat inactivation of the enzyme at 65° C. for 15′ and purification of radiolabeled ARRE2 using MicroSpin G-25 columns (GE Biosciences).
(§3) Binding reactions were set up in EMSA buffer (10 mM HEPES pH=7.5, 120 mM NaCl, 10% glycerol, 0.8 mg/mL BSA, 1 mM DTT) in the presence of complete protease inhibitor (Roche). Compounds CID 2740816 (1668 P02) and CID 5713461 (1661 N20) (Ryan Scientific) were resuspended in DMSO and incubated with 20 nM NFAT and 10 nM AP-1 for 10′ followed by addition of ˜2.5 nM radiolabeled ARRE2 probe. Reactions were then incubated for 30′ at room temperature and loaded on a 4% polyacrylamide gel (pre-run for 30-45′).

EAE in C57BL/6 mice = assay: Passive transfer EAE with compound-treated 2D2 Th1 cells; type: in vivo, mouse
Method: EAE induction: CD4 T cells from 2D2 transgenic mice were activated with 0.2 μg/mL αCD3/αCD28 under Th1-polarizing conditions for 48-60 h in the presence of DMSO or compound as indicated. T cells were rested and expanded for 2 d followed by restimulation with 0.1 μg/mL αCD3/αCD28 for 24 h in the presence of DMSO or compound. Cells were resuspended in 1×PBS and injected intraperitoneally into female 8 wk old C57BL/6 mice, 1.5 million T cells per mouse. Mice were monitored for weight loss and development of disease symptoms using a standard clinical scale: 0, healthy; 1, flaccid tail; 2, ataxia/paresis of hind limbs; 3, paralysis of hind limbs; 4, tetraparalysis; 5, moribund or death W.

NFAT:DNA complex = target: T2, NFAT:DNA complex (Homo sapiens, UniProt Q13469); assay: EMSA, NFAT:DNA complex; type: binding; conditions: high concentration (6.25 mM)
T2 construct: The NFAT DBD containing a His tag was cloned into the pQE vector; His tag (MRGSHHHHHH leader) (N); made in house
T2 sequence (Q13469 with tags, fused parts or gaps): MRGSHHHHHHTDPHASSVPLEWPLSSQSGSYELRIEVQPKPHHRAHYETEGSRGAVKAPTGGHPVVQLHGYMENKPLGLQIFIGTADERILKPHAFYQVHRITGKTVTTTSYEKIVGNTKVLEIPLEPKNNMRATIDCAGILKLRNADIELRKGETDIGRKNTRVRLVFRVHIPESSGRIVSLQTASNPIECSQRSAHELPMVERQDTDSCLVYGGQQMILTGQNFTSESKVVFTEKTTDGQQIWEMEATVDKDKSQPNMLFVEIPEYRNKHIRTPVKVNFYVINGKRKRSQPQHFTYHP
Method: as §2, §3

CD69 = CD69 upregulation in restimulated CD4 T cells; type: cell-based, mouse; conditions: 4 h activation period, also at high concentrations
Method: (§4) For restimulation, T cells from primary cultures were rested for 3-4 d, washed, counted and stimulated for 4 h with 10 nM PMA and varied concentrations of ionomycin; where indicated, CsA was added to cells at a final concentration of 2 μM 20′ before activation while compounds were added 45-60′ before activation. Brefeldin A was added at 10 μg/mL for the final 2-2.5 h of stimulation. T cells were fixed with 4% paraformaldehyde, permeabilized in saponin buffer and stained for intracellular cytokines; data were collected on a FACSCalibur instrument (BD Biosciences).

Foxp3 = assay: Treg-associated gene upregulation under iTreg-polarizing conditions (real time RT-PCR); type: cell-based, mouse; conditions: activation in the presence of TGFβ (iTreg polarizing)
Method: (§5) T cell activation assays: Mouse CD4 T cells were isolated using the Dynal CD4 T cell positive isolation kit (Invitrogen) and activated with 1 μg/mL αCD3/αCD28 for 48-60 h under non-polarizing or Th1-conditions (10 ng/mL IL-12 and 10 μg/mL αIL-4). CD4CD25+ T cells were depleted from purified CD4 T cells using a CD25 microbead MACS kit (Miltenyi Biotech), and CD4CD25− T cells were activated with αCD3/αCD28 in the presence of 3 ng/mL TGF[…] (iTreg-polarizing conditions).
as §1

CD4 T cells = assay: Cytotoxicity / live cell numbers in restimulated CD4 T cells; type: cell-based, mouse; conditions: for cell numbers within the live cell gate: 4 h restimulation with compound; for cytotoxicity: at the concentrations tested
Method: as §4

IL-17 in CD4 T cells = assay: IL-17 levels after compound treatment during primary Th17 differentiation; type: cell-based, mouse
[2] = system: IL-2 and TNFα production in activated CD4 T cells; assay: Intracellular cytokine FACS in restimulated CD4 T cells; type: cell-based, mouse; conditions: for inhibition of IL-2/TNFα production: restimulation with αCD3/αCD28 instead of PMA/ionomycin
Method: as §5, §4

[3] = system: IFNγ production in 2D2 CD4 T cells; assay: IFNγ production after compound treatment during Th1 activation; type: cell-based, mouse; conditions: 7.8 μM during activation under Th1 conditions, compared to DMSO
Method: as §5, §4

[4] = target: T3, NFAT DNA-binding domain (NFAT-DBD) (UniProt Q13469 SEQ:15-300); assay: EMSA; conditions: tags: His tag (MRGSHHHH..), pQE vector, E. coli; label: 32P 5'-end
T3 chain: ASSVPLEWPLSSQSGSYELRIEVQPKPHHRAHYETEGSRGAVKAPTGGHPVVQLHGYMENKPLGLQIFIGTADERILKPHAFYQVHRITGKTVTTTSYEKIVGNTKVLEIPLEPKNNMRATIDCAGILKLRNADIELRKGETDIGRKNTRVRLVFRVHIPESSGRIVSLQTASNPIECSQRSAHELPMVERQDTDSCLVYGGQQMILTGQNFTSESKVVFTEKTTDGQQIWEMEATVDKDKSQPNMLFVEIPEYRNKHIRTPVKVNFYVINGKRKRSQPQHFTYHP

[5] = Th1 cells treated with 7.8 μM compound, IP transfer
[6] = compared to 1668 P02- or DMSO-treated Th1 transfer groups
[7] = 10 nM PMA, ionomycin 100 nM or 300 nM
[8] = 10 nM PMA/100 nM ionomycin, 4 h

T1 sequence (P01100 with tags, fused parts or gaps C154S, one chain of several): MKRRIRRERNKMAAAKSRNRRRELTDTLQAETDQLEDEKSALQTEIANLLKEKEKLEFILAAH
T1 sequence (P05412 with tags, fused parts or gaps C269S, one chain of several): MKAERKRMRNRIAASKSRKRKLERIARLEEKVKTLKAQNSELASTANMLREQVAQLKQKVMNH

## N#C/C(=N/Nc1ccc2c(c1)OCO2)C(=O)N1CCCC1 [1661 N20]
[1]
  IL-2 mRNA transcript: highly significant reduction
  IL-24 transcript levels: remained unchanged
  IP-10 transcript levels: actually higher
[1]; relative to DMSO controls
  GM-CSF transcript levels: significantly reduced
  levels of IFNγ mRNA: significantly reduced
NFAT:AP-1:DNA complex
  assembly of the ternary complex: almost abrogate
  inhibition of formation of the NFAT:AP-1:DNA complex: modestly inhibit
  inhibition of NFAT:AP-1:DNA complex formation: modest inhibition
EAE in C57BL/6 mice; [5]
  kinetics of disease development: clearly delayed kinetics
  severity of clinical symptoms of EAE: reduced severity; also recorded: decreased severity
EAE in C57BL/6 mice; [6]
  mean clinical score: significantly lower
  percentage weight loss: significantly lower
NFAT:DNA complex
  effect on the NFAT:DNA complex: unaffected; also recorded: neither compound had an inhibitory effect
CD69
  upregulation of CD69: not affected; also recorded: unaffected
Foxp3
  upregulation of Treg-associated genes, notably Foxp3: did not affect
CD4 T cells
  cell numbers within the live cell gate: no apparent change; also recorded: unchanged
  cytotoxicity: neither compound appeared to be cytotoxic
IL-17 in CD4 T cells
  IL-17 levels upon restimulation: remained unchanged
[2]; [7]
  reduction in MFI of IL-2: ≤ 50%
  reduction in MFI of TNFα: ≤ 50%
[2]; [8]
  inhibition of IL-2 and TNFα production: inhibit production
[2]; 10 nM PMA/500 nM ionomycin
  inhibition of IL-2 and TNFα production: inhibitory
[2]
  inhibition of IL-2/TNFα production: acute inhibition
[3]
  levels of IFNγ production: slight decrease

## O=C1CCCC(=O)C1=NNc1cc(C(F)(F)F)ccc1OCC(F)(F)F [1668 P02]
[1]
  IL-2 mRNA transcript: not statistically significant
  IL-24 transcript levels: remained unchanged
  IP-10 transcript levels: actually higher
NFAT:AP-1:DNA complex
  assembly of the ternary complex: almost abrogate
  inhibition of formation of the NFAT:AP-1:DNA complex: modestly inhibit
  inhibition of NFAT:AP-1:DNA complex formation: modest inhibition
EAE in C57BL/6 mice; Th1 cells treated with compound, IP transfer
  disease curve relative to DMSO-treated Th1 transfer group: overlapping disease curves
NFAT:DNA complex
  effect on the NFAT:DNA complex: unaffected; also recorded: neither compound had an inhibitory effect
CD69
  upregulation of CD69: not affected; also recorded: unaffected
Foxp3
  upregulation of Treg-associated genes, notably Foxp3: did not affect
CD4 T cells
  cell numbers within the live cell gate: no apparent change; also recorded: unchanged
  cytotoxicity: neither compound appeared to be cytotoxic
IL-17 in CD4 T cells
  IL-17 levels upon restimulation: remained unchanged
[2]; [8]
  inhibition of IL-2 and TNFα production: inhibit production
[2]; 10 nM PMA/500 nM ionomycin
  inhibition of IL-2 and TNFα production: to a lesser extent
[2]
  inhibition of IL-2/TNFα production: acute inhibition
[3]
  levels of IFNγ production: slight decrease

B1: ARRE2 probe, 32P (dsDNA)
DNA 1: CCTTCTGTATGAAACAAATTTTCCTCTTTG
DNA 2: CAAAGAGGAAAATTTGTTTCATACAGAAGG
[4]
  binding result: binds
